Source: patent US8309552B2, “Immunomodulating heterocyclic compounds” (Medigene AG, priority 2003, dated 2012)
Like-named read-outs stand apart in the source and are kept apart here.

What was measured:
[1] = tested on: production of Interleukin-2 (IL-2) by Human Jurkat T Cells; assay: Inhibition of production of interleukin-2 (IL-2) by human Jurkat T cells (Raji/Jurkat co-culture, anti-CD3, IL-2 ELISA); format: cell-based; details: read-out: Percentage Inhibition (relative to DMSO = 0%); for inhibition at 10 µM: Compound Concentration 10 μM; for inhibition at 30 µM: Compound Concentration 30 μM
Protocol: • Collins A V et al. (2002) Immunity 17, 201-210 “The interaction properties of costimulatory molecules revisited” Inhibition of Production of Interleukin-2 (IL-2) by Human Jurkat T Cells. Method
Human Raji cells were dispensed at a concentration of 2×10^5 cells per well in RPMI-1640 medium supplemented with 10% fetal calf serum, 1% penicillin/streptomycin, 1% glutamine (RPMI medium) in a 96-well round bottom microtitre plate. Compounds under investigation (dissolved in 100% DMSO) were diluted to eight-fold the desired final concentration in RPMI medium and added to the required final concentration for a total volume of 200 μl per well. After 20 minutes incubation at 37° C., Jurkat T cells were added at a concentration of 2×10^5 cells per well. Monoclonal antibody to CD3 (UCHT1, R&D Systems) was added to the cultures at a final concentration of 1 μg per ml, and where indicated, monoclonal antibody to CD28 (CD28.2, BD-Pharmingen) was also added at a concentration of 2.5 μg per ml. Cells were cultured at 37° C. for 5 hours, after which the plates were centrifuged and the supernatants harvested for IL-2 ELISA assay using the IL-2 Eli-pair kit (DIACLONE Research, Besancon, France) according to the manufacturers instructions.

CD80-CD28 interaction = target: T1, CD80-CD28 interaction (Homo sapiens, UniProt P33681); assay: Homogenous Time Resolved Fluorescence (HTRF) assay, cell free; format: binding; details: 4 hours at room temperature, read-out: Activity (EC50 in the HTRF assay)
T1 sequence (P33681 35-242 limits assumed): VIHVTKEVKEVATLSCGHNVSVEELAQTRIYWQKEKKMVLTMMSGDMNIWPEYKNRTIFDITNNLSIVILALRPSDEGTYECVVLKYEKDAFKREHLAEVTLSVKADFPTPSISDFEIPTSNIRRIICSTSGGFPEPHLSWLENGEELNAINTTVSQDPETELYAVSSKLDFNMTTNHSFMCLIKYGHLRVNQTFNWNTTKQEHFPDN
Procedure, shortened: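 In pH7.8 Tris-HCl/NaCl buffer with 0.1% BSA, a 100 μM-1.7 nM compound series was incubated for 4 h at room temperature with CD28 and CD80 fusions carrying europium and APC via linker antibodies. Time-resolved signals at 665 and 615 nm were read after 340 nm excitation; a C215 Fab swap defined background. EC50 given as banded classes.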

[2] = cell-free HTRF, concentration series 100 μM-1.7 nM
[3] = cell free HTRF assay, concentration series 100 μM-1.7 nM
[4] = cell-free HTRF, compound concentration series 100 μM-1.7 nM

| EC50 (CD80-CD28 interaction; [3]) [nM] | EC50 (CD80-CD28 interaction; [4]) [nM] | SMILES | other results |
| --- | --- | --- | --- |
| – | – | N#CCNC(=O)c1ccc(-n2[nH]c3c(nnc4c(F)cccc43)c2=O)cc1 [Example 482] | inhibition at 10 µM [1]: 39.2%; EC50 (CD80-CD28 interaction; [2]): < 1000 nM |
| – | – | CN(C)C1CCC(NC(=O)c2ccc(-n3[nH]c4c(nnc5c(F)cccc54)c3=O)cc2)CC1 (stereo not drawn) [Example 472] | inhibition at 10 µM [1]: 58.4%; EC50 (CD80-CD28 interaction; [2]): < 1000 nM |
| < 1000 | – | CN1CCC(NC(=O)c2ccc(-n3[nH]c4c(nnc5c(F)cccc54)c3=O)cc2)CC1 [Example 349] | inhibition at 10 µM [1]: 79.5% |
| – | < 1000 | CN1C(C)(C)CC(NC(=O)c2ccc(-n3[nH]c4c(nnc5ccccc54)c3=O)cc2)CC1(C)C [Example 68] | inhibition at 10 µM [1]: 71.7% |
| – | – | CCN1CCC(NC(=O)c2ccc(-n3[nH]c4c(nnc5c(F)cccc54)c3=O)cc2)CC1 [Example 453] | inhibition at 10 µM [1]: 55.7%; EC50 (CD80-CD28 interaction; [2]): < 1000 nM |
| – | < 1000 | CCN1CCCC1CNC(=O)Nc1ccc(-n2[nH]c3c(nnc4ccccc43)c2=O)cc1 (stereo not drawn) [Example 162] | inhibition at 30 µM [1]: 54.4% |
| – | – | CCCNCCCNC(=O)c1ccc(-n2[nH]c3c(nnc4c(F)cccc43)c2=O)cc1 [Example 442] | inhibition at 10 µM [1]: 58.9%; EC50 (CD80-CD28 interaction; [2]): < 1000 nM |
| < 1000 | – | O=C(NCCCN1CCOCC1)c1ccc(-n2[nH]c3c(nnc4c(F)cccc43)c2=O)cc1 [Example 350] | inhibition at 10 µM [1]: 74.2% |
| < 1000 | – | O=C(NCCCNC1CCCCC1)c1ccc(-n2[nH]c3c(nnc4c(F)cccc43)c2=O)cc1 [Example 235] | inhibition at 10 µM [1]: 59.3% |
| < 1000 | – | O=C(NCC(F)F)c1ccc(-n2[nH]c3c(nnc4c(F)cccc43)c2=O)cc1 [Example 376] | inhibition at 10 µM [1]: 56.7% |
| – | < 1000 | CC(C)OCCCNC(=O)c1ccc(-n2[nH]c3c(nnc4ccccc43)c2=O)cc1 [Example 53] | inhibition at 30 µM [1]: 63.8% |
| < 1000 | – | O=C(NCCCNC1CCCCC1)c1ccc(-n2[nH]c3c(nnc4c(F)ccc(F)c43)c2=O)cc1 [Example 429] | inhibition at 10 µM [1]: 58.8% |
| – | – | CN1CCCN(C(=O)c2ccc(-n3[nH]c4c(nnc5c(F)cccc54)c3=O)cc2)CC1 [Example 489] | EC50 (CD80-CD28 interaction; [2]): < 1000 nM |
| > 10000 | – | O=C(NCc1cccc(F)c1)Nc1ccc(-n2[nH]c3c(nnc4ccccc43)c2=O)cc1 [Example 284] | – |
| < 1000 | – | CCN(C)CCCCNC(=O)c1ccc(-n2[nH]c3c(nnc4c(F)cccc43)c2=O)cc1 [Example 432] | – |
| – | – | CN(CCCCNC(=O)c1ccc(-n2[nH]c3c(nnc4c(F)cccc43)c2=O)cc1)C(C)(C)C [Example 478] | inhibition at 10 µM [1]: 56%; EC50 (CD80-CD28 interaction; [2]): < 1000 nM |
| < 1000 | – | O=C(NC1CCN(Cc2ccccc2)C1)c1ccc(-n2[nH]c3c(nnc4cccc(F)c43)c2=O)cc1 (stereo not drawn) [Example 399] | – |
| – | 1000 to 10000 | CSCCNC(=O)Nc1ccc(-n2[nH]c3c(nnc4ccccc43)c2=O)cc1 [Example 178] | – |
| < 1000 | – | CCCCNCCNC(=O)c1ccc(-n2[nH]c3c(nnc4ccccc43)c2=O)cc1 [Example 279] | – |
| – | < 1000 | CC(C)NCCCNC(=O)c1ccc(-n2[nH]c3c(nnc4ccccc43)c2=O)cc1 [Example 110] | – |
| – | 1000 to 10000 | O=C(Nc1ccc(-n2[nH]c3c(nnc4ccccc43)c2=O)cc1)NC1CCOC1=O (stereo not drawn) [Example 195] | – |
| – | – | O=C(NCCNCCO)c1ccc(-n2[nH]c3c(nnc4c(F)cccc43)c2=O)cc1 [Example 505] | EC50 (CD80-CD28 interaction; [2]): < 1000 nM |
| – | 1000 to 10000 | COCCNC(=O)Nc1ccc(-n2[nH]c3c(nnc4ccccc43)c2=O)cc1 [Example 140] | – |
| – | – | CC1CN(CCCCNC(=O)c2ccc(-n3[nH]c4c(nnc5c(F)cccc54)c3=O)cc2)CC(C)O1 (stereo not drawn) [Example 460] | EC50 (CD80-CD28 interaction; [2]): < 1000 nM |
| – | 1000 to 10000 | O=C(Nc1ccc(-n2[nH]c3c(nnc4ccccc43)c2=O)cc1)NC1CCOC1=O (stereo not drawn) [Example 153] | – |
| – | 1000 to 10000 | CC(C)(C)CCNC(=O)c1ccc(-n2[nH]c3c(nnc4ccccc43)c2=O)cc1 [Example 85] | – |
| – | > 10000 | CCOC(=O)CCCNC(=O)Nc1ccc(-n2[nH]c3c(nnc4ccccc43)c2=O)cc1 [Example 192] | – |

| EC50 (CD80-CD28 interaction; [3]) [nM] | EC50 (CD80-CD28 interaction; [4]) [nM] | SMILES | other results |
| --- | --- | --- | --- |
| – | 1000 to 10000 | O=C(NCCc1ccccc1)Nc1ccc(-n2[nH]c3c(nnc4ccccc43)c2=O)cc1 [Example 147] | – |
| – | < 1000 | CC(C)CCCC(C)NC(=O)c1ccc(-n2[nH]c3c(nnc4ccccc43)c2=O)cc1 (stereo not drawn) [Example 26] | – |
| < 1000 | – | CC1CCCCN1CCCNC(=O)c1ccc(-n2[nH]c3c(nnc4cccc(F)c43)c2=O)cc1 (stereo not drawn) [Example 394] | – |
| < 1000 | – | CC(C)NCCCNC(=O)c1ccc(-n2[nH]c3c(nnc4c(F)cccc43)c2=O)cc1 [Example 348] | – |
| – | 1000 to 10000 | CCOCCCNC(=O)Nc1ccc(-n2[nH]c3c(nnc4ccccc43)c2=O)cc1 [Example 128] | – |
| < 1000 | – | C=C(C)CNC(=O)c1ccc(-n2[nH]c3c(nnc4c(F)cccc43)c2=O)cc1 [Example 340] | – |
| – | < 1000 | CCN1CCCC1CNC(=O)c1ccc(-n2[nH]c3c(nnc4ccccc43)c2=O)cc1 (stereo not drawn) [Example 69] | – |
| < 1000 | – | CC1(C)CC(NC(=O)c2ccc(-n3[nH]c4c(nnc5c(F)cccc54)c3=O)cc2)CC(C)(C)N1 [Example 374] | – |
| – | – | CCCN(CCCCNC(=O)c1ccc(-n2[nH]c3c(nnc4c(F)cccc43)c2=O)cc1)CC1CC1 [Example 468] | EC50 (CD80-CD28 interaction; [2]): < 1000 nM |
| – | 1000 to 10000 | COCC(C)NC(=O)c1ccc(-n2[nH]c3c(nnc4ccccc43)c2=O)cc1 (stereo not drawn) [Example 119] | – |
| – | 1000 to 10000 | CCCNC(=O)c1ccc(-n2[nH]c3c(nnc4ccccc43)c2=O)cc1 [Example 84] | – |
| – | < 1000 | CCCCOCCCNC(=O)c1ccc(-n2[nH]c3c(nnc4ccccc43)c2=O)cc1 [Example 67] | – |
| 1000 to 10000 | – | O=C(NCC1CCCO1)c1ccc(-n2[nH]c3c(nnc4ccccc43)c2=O)cc1 (stereo not drawn) [Example 238] | – |
| – | 1000 to 10000 | CCOC(=O)C(C)NC(=O)c1ccc(-n2[nH]c3c(nnc4ccccc43)c2=O)cc1 (stereo not drawn) [Example 118] | – |
| 1000 to 10000 | – | CCOC(CNC(=O)Nc1ccc(-n2[nH]c3c(nnc4ccccc43)c2=O)cc1)OCC [Example 307] | – |
| – | < 1000 | CN1CCCC1CCNC(=O)c1ccc(-n2[nH]c3c(nnc4ccccc43)c2=O)cc1 (stereo not drawn) [Example 61] | – |
| – | 1000 to 10000 | CC(C)C(C)NC(=O)c1ccc(-n2[nH]c3c(nnc4ccccc43)c2=O)cc1 (stereo not drawn) [Example 33] | – |
| – | 1000 to 10000 | CC1C(NC(=O)c2ccc(-n3[nH]c4c(nnc5ccccc54)c3=O)cc2)CC2CC1C2(C)C (stereo not drawn) [Example 121] | – |
| < 1000 | – | O=C(NCCCCN1CCCC1)c1ccc(-n2[nH]c3c(nnc4c(F)ccc(F)c43)c2=O)cc1 [Example 430] | – |
| > 10000 | – | COc1ccc(OCCNC(=O)Nc2ccc(-n3[nH]c4c(nnc5ccccc54)c3=O)cc2)cc1 [Example 225] | – |
| – | < 1000 | CC(C)CC(C)NC(=O)c1ccc(-n2[nH]c3c(nnc4ccccc43)c2=O)cc1 (stereo not drawn) [Example 55] | – |
| < 1000 | – | CC(C)(C)NC(=O)c1ccc(-n2[nH]c3c(nnc4ccccc43)c2=O)cc1 [Example 319] | – |
| < 1000 | – | CCCC(C)NC(=O)c1ccc(-n2[nH]c3c(nnc4ccccc43)c2=O)cc1 (stereo not drawn) [Example 321] | – |
| > 10000 | – | O=C(Nc1ccc(-n2[nH]c3c(nnc4ccccc43)c2=O)cc1)Nc1nc2ccccc2s1 [Example 293] | – |
| 1000 to 10000 | – | CC(C)(C)OC(=O)CCNC(=O)Nc1ccc(-n2[nH]c3c(nnc4ccccc43)c2=O)cc1 [Example 223] | – |
| – | 1000 to 10000 | COc1ccc2[nH]cc(CCNC(=O)c3ccc(-n4[nH]c5c(nnc6ccccc65)c4=O)cc3)c2c1 [Example 31] | – |
| – | – | CC1CN(C(=O)c2ccc(-n3[nH]c4c(nnc5c(F)cccc54)c3=O)cc2)CC(C)O1 (stereo not drawn) [Example 461] | EC50 (CD80-CD28 interaction; [2]): < 1000 nM |

| SMILES | EC50 (CD80-CD28 interaction; [3]) [nM] | EC50 (CD80-CD28 interaction; [4]) [nM] | other results |
| --- | --- | --- | --- |
| O=C(NC1CN2CCC1CC2)c1ccc(-n2[nH]c3c(nnc4c(F)cccc43)c2=O)cc1 (stereo not drawn) [Example 353] | < 1000 | – | inhibition at 10 µM [1]: 77.4% |
